Assay results from PubChem BioAssay (NCI).
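Exposure lasted 48 hours, with cells grown in 96-well plates and compounds tested at five concentrations. TGI marks complete inhibition of growth.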

Tests used:
Test in all cases: NCI tumour cell line growth inhibition, 48 h
KM20L2 colon = tested on: KM20L2 colon
HL-60(TB) leukemia = tested on: HL-60(TB) leukemia
786-0 renal = tested on: 786-0 renal
M19-MEL melanoma = tested on: M19-MEL melanoma
SW-620 colon = tested on: SW-620 colon
TK-10 renal = tested on: TK-10 renal
SK-MEL-28 melanoma = tested on: SK-MEL-28 melanoma
EKVX NSCLC = tested on: EKVX NSCLC
UACC-62 melanoma = tested on: UACC-62 melanoma
MOLT-4 leukemia = tested on: MOLT-4 leukemia
OVCAR-3 ovarian = tested on: OVCAR-3 ovarian
SF-295 CNS = tested on: SF-295 CNS
COLO 205 colon = tested on: COLO 205 colon
DMS 273 small cell lung = tested on: DMS 273 small cell lung
HCT-116 colon = tested on: HCT-116 colon
SNB-19 CNS = tested on: SNB-19 CNS
OVCAR-8 ovarian = tested on: OVCAR-8 ovarian
HOP-62 NSCLC = tested on: HOP-62 NSCLC
LXFL 529 NSCLC = tested on: LXFL 529 NSCLC
XF 498 CNS = tested on: XF 498 CNS
U251 CNS = tested on: U251 CNS
SF-268 CNS = tested on: SF-268 CNS
HOP-92 NSCLC = tested on: HOP-92 NSCLC
DMS 114 small cell lung = tested on: DMS 114 small cell lung
M14 melanoma = tested on: M14 melanoma
CCRF-CEM leukemia = tested on: CCRF-CEM leukemia
SN12C renal = tested on: SN12C renal
IGROV1 ovarian = tested on: IGROV1 ovarian
ACHN renal = tested on: ACHN renal
HOP-18 NSCLC = tested on: HOP-18 NSCLC
UACC-257 melanoma = tested on: UACC-257 melanoma
SK-MEL-5 melanoma = tested on: SK-MEL-5 melanoma
RPMI-8226 leukemia = tested on: RPMI-8226 leukemia
SNB-78 CNS = tested on: SNB-78 CNS
DLD-1 colon = tested on: DLD-1 colon
A498 renal = tested on: A498 renal
NCI-H226 lung = tested on: NCI-H226 lung
A549 NSCLC = tested on: A549 NSCLC
RXF-631 renal = tested on: RXF-631 renal
NCI-H522 lung = tested on: NCI-H522 lung
OVCAR-4 ovarian = tested on: OVCAR-4 ovarian
MALME-3M melanoma = tested on: MALME-3M melanoma
HT29 colon = tested on: HT29 colon
RXF 393 renal = tested on: RXF 393 renal
SF-539 CNS = tested on: SF-539 CNS
SNB-75 CNS = tested on: SNB-75 CNS
UO-31 renal = tested on: UO-31 renal
CAKI-1 renal = tested on: CAKI-1 renal
K-562 leukemia = tested on: K-562 leukemia
HCT-15 colon = tested on: HCT-15 colon
NCI-H460 lung = tested on: NCI-H460 lung
LOX IMVI melanoma = tested on: LOX IMVI melanoma
KM12 colon = tested on: KM12 colon
SK-MEL-2 melanoma = tested on: SK-MEL-2 melanoma
HCC-2998 colon = tested on: HCC-2998 colon
OVCAR-5 ovarian = tested on: OVCAR-5 ovarian
P388/ADR leukemia = tested on: P388/ADR leukemia
NCI-H23 lung = tested on: NCI-H23 lung
P388 leukemia = tested on: P388 leukemia
SN12K1 renal = tested on: SN12K1 renal
MCF7 breast = tested on: MCF7 breast
NCI/ADR-RES ovarian = tested on: NCI/ADR-RES ovarian
SK-OV-3 ovarian = tested on: SK-OV-3 ovarian

SMILES: COc1cccc(/C=C(/C(=O)O)c2cc(OC)c(OC)c(OC)c2)c1
- TGI (KM20L2 colon): > 100 µM
- TGI (HL-60(TB) leukemia): > 100 µM
- TGI (786-0 renal): > 100 µM
- TGI (M19-MEL melanoma): > 100 µM
- TGI (SW-620 colon): > 100 µM
- TGI (TK-10 renal): > 100 µM
- TGI (SK-MEL-28 melanoma): > 100 µM
- TGI (EKVX NSCLC): > 100 µM
- TGI (UACC-62 melanoma): > 100 µM
- TGI (MOLT-4 leukemia): > 100 µM
- TGI (OVCAR-3 ovarian): > 100 µM
- TGI (SF-295 CNS): > 100 µM
- TGI (COLO 205 colon): > 100 µM
- TGI (DMS 273 small cell lung): > 100 µM
- TGI (HCT-116 colon): > 100 µM
- TGI (SNB-19 CNS): > 100 µM
- TGI (OVCAR-8 ovarian): > 100 µM
- TGI (HOP-62 NSCLC): > 100 µM
- TGI (LXFL 529 NSCLC): > 100 µM
- TGI (XF 498 CNS): > 100 µM
- TGI (U251 CNS): > 100 µM
- TGI (SF-268 CNS): > 100 µM
- TGI (HOP-92 NSCLC): > 100 µM
- TGI (DMS 114 small cell lung): > 100 µM
- TGI (M14 melanoma): > 100 µM
- TGI (CCRF-CEM leukemia): > 100 µM
- TGI (SN12C renal): > 100 µM
- TGI (IGROV1 ovarian): > 100 µM
- TGI (ACHN renal): > 100 µM
- TGI (HOP-18 NSCLC): > 100 µM
- TGI (UACC-257 melanoma): > 100 µM
- TGI (SK-MEL-5 melanoma): > 100 µM
- TGI (RPMI-8226 leukemia): > 100 µM
- TGI (SNB-78 CNS): > 100 µM
- TGI (DLD-1 colon): > 100 µM
- TGI (A498 renal): > 100 µM
- TGI (NCI-H226 lung): > 100 µM
- TGI (A549 NSCLC): > 100 µM
- TGI (RXF-631 renal): > 100 µM
- TGI (NCI-H522 lung): > 100 µM
- TGI (OVCAR-4 ovarian): > 100 µM
- TGI (MALME-3M melanoma): > 100 µM
- TGI (HT29 colon): > 100 µM
- TGI (RXF 393 renal): > 100 µM
- TGI (SF-539 CNS): > 100 µM
- TGI (SNB-75 CNS): > 100 µM
- TGI (UO-31 renal): > 100 µM
- TGI (CAKI-1 renal): > 100 µM
- TGI (K-562 leukemia): > 100 µM
- TGI (HCT-15 colon): > 100 µM
- TGI (NCI-H460 lung): > 100 µM
- TGI (LOX IMVI melanoma): > 100 µM
- TGI (KM12 colon): > 100 µM

SMILES: CC1(C)S[C@@H]2[C@H](NC(=O)CCC[C@@H](N)C(=O)O)C(=O)N2[C@H]1C(=O)O
- TGI (KM20L2 colon): > 28 µM
- TGI (HL-60(TB) leukemia): > 50 µM
- TGI (M19-MEL melanoma): > 50 µM
- TGI (SK-MEL-2 melanoma): > 50 µM
- TGI (SW-620 colon): > 31.6 µM
- TGI (SK-MEL-28 melanoma): > 50 µM
- TGI (EKVX NSCLC): > 50 µM
- TGI (UACC-62 melanoma): > 50 µM
- TGI (MOLT-4 leukemia): > 50 µM
- TGI (HCC-2998 colon): > 50 µM
- TGI (OVCAR-3 ovarian): > 50 µM
- TGI (SF-295 CNS): > 50 µM
- TGI (COLO 205 colon): > 50 µM
- TGI (DMS 273 small cell lung): > 50 µM
- TGI (HCT-116 colon): > 50 µM
- TGI (SNB-19 CNS): > 50 µM
- TGI (OVCAR-8 ovarian): > 19.9 µM
- TGI (HOP-62 NSCLC): > 50 µM
- TGI (XF 498 CNS): > 42 µM
- TGI (U251 CNS): > 28.4 µM
- TGI (SF-268 CNS): > 50 µM
- TGI (HOP-92 NSCLC): > 50 µM
- TGI (OVCAR-5 ovarian): > 28.1 µM
- TGI (CCRF-CEM leukemia): > 50 µM
- TGI (SN12C renal): > 50 µM
- TGI (IGROV1 ovarian): > 50 µM
- TGI (HOP-18 NSCLC): > 50 µM
- TGI (UACC-257 melanoma): > 50 µM
- TGI (P388/ADR leukemia): > 50 µM
- TGI (SK-MEL-5 melanoma): > 21.6 µM
- TGI (NCI-H23 lung): > 50 µM
- TGI (RPMI-8226 leukemia): > 50 µM
- TGI (SNB-78 CNS): > 50 µM
- TGI (DLD-1 colon): > 50 µM
- TGI (P388 leukemia): > 50 µM
- TGI (A498 renal): > 50 µM
- TGI (NCI-H226 lung): > 50 µM
- TGI (A549 NSCLC): > 50 µM
- TGI (NCI-H522 lung): > 50 µM
- TGI (OVCAR-4 ovarian): > 50 µM
- TGI (SN12K1 renal): > 50 µM
- TGI (MALME-3M melanoma): > 50 µM
- TGI (MCF7 breast): > 50 µM
- TGI (NCI/ADR-RES ovarian): > 31.6 µM
- TGI (HT29 colon): > 50 µM
- TGI (RXF 393 renal): > 50 µM
- TGI (SF-539 CNS): > 50 µM
- TGI (SK-OV-3 ovarian): 49.9 µM
- TGI (SNB-75 CNS): > 50 µM
- TGI (UO-31 renal): > 50 µM
- TGI (CAKI-1 renal): > 50 µM
- TGI (K-562 leukemia): > 50 µM
- TGI (HCT-15 colon): > 50 µM
- TGI (NCI-H460 lung): > 50 µM
- TGI (LOX IMVI melanoma): > 50 µM
- TGI (KM12 colon): > 50 µM
